Laboratory results taken from publication PMC12580772, “A First-in-Human Study of ATM Inhibitor Lartesertib as Monotherapy in Patients with Advanced Solid Tumors” (Clinical Cancer Research, 2025).
“Also recorded” adds a separate entry of the source.

What was measured:
[1] = PK analysis of lartesertib in plasma (non-compartmental); type: in vivo, human
Description: The PK of lartesertib was characterized during dose escalation using an intensive PK sample collection schedule. Blood samples were collected at multiple timepoints during Cycle 1, including on Day 1 (pre-dose at 0 hours and post-dose at 0.5, 1, 2, 3, 4, 6, 8, and 12 hours) and Day 8 (pre-dose at 0 hours and post-dose at 1, 2, 3, 4, 6, 8, and 12 hours). PK parameters were calculated from individual plasma concentration–time data using non-compartmental methods.

advanced solid tumors = experiment: Efficacy: tumor response and PFS by RECIST version 1.1; type: in vivo, human
From the text: The primary endpoints were the occurrence of DLTs, adverse events (AE), and treatment-related and treatment-emergent AEs (TEAE), along with the occurrence of clinically significant changes in vital signs, laboratory parameters, and 12-lead electrocardiogram findings. The secondary endpoints included PK parameters of lartesertib in plasma after single and multiple doses; establishment of the recommended dose for expansion based on safety, PK, and PD data; absolute and relative changes overtime from baseline in ATM pathway readouts assessed by flow cytometry and immunohistochemistry; and objective response, duration of response, and progression-free survival (PFS) according to the RECIST version 1.1, as assessed by the investigator. Exploratory endpoints included the correlation of baseline and on-treatment biomarkers with response to lartesertib treatment as well as relative changes in total blood cell count, immune cells, and circulatory factors during exposure to lartesertib.
For the efficacy analysis, the proportion of patients with objective response, defined as radiologic complete response (CR) + partial response, was tabulated, and the 95% confidence interval (CI) was estimated using the Clopper–Pearson method. PFS was estimated using the Kaplan–Meier method. The median PFS time and rate estimates at 3, 6, and 12 months, as well as every 6 months thereafter, were also summarized.

[2] = tested on: ctDNA somatic variant allele frequency; experiment: Plasma ctDNA next-generation sequencing (Guardant Health OMNI panel), molecular response; type: in vivo, human; details: 21 evaluable patients
Description: (§1) Circulating immune factors (e.g., IFN-β, IFN-γ, IL-1β, IL-2, IL-4, IL-6, IL-8, IL-10, IL-12p70, IL-13, TNF-α, and NKG2DL) were assessed using immunofluorescence assays. Additionally, blood samples were tested for plasma ctDNA by next-generation sequencing at Guardant Health using the OMNI panel. This analysis was conducted to evaluate surrogate markers of tumor dynamics, sensitivity, and resistance to treatment. Molecular response (MR) was assessed and defined as strongest change of—per visit averaged—somatic variant allele frequency (VAF) against the pretreatment level as follows: Best delta mean VAF = MIN (meanVAFvisiti – meanVAFpretreatment / meanVAFpretreatment)

[3] = tested on: immune cell subsets and circulating immune factors; experiment: Immunophenotyping by flow cytometry and circulating immune factors; type: in vivo, human
Description: Serial blood samples collected at each visit were tested for total blood cell counts and immune cell subsets (e.g., T cells, B cells, and NK cells) to evaluate immunophenotyping by flow cytometry.
as §1

[4] = tested on: cancer cell lines (head and neck, colon, lung, gastric, breast, and melanoma); design: method as in PMID 35405736; details: in vitro; cited from earlier work
[5] = tested on: MiaPaCa2 pancreatic cancer model; design: method as in PMID 37079339; details: combination with the ATR inhibitor gartisertib; cited from earlier work
[6] = tested on: acute myeloid leukemia model Mv4.11; design: method as in PMID 37079339; details: combination with the ATR inhibitor gartisertib; cited from earlier work
[7] = tested on: patient-derived xenograft models of triple-negative breast cancer; design: method as in PMID 37079339; details: lartesertib in combination with gartisertib; cited from earlier work
[8] = tested on: patients with advanced solid tumors; design: method as in PMID 38407317; details: combination of lartesertib and tuvusertib; cited from earlier work

Structure (SMILES): COc1cc2ncc3c(c2cc1-c1cn(C)nc1C)n(-c1c(F)cncc1OC)c(=O)n3C [lartesertib]
- Exposure versus dose ([1]; 100-400 mg once daily): increased in a dose-related manner; also recorded: increased in a dose-dependent manner
- half-life ([1]; human, plasma, oral, across 100-400 mg once daily, Day 1 and Day 8, read-out: Geometric mean elimination half-life (t1/2)): 5 to 7 h
- Tmax ([1]; human, plasma, oral, across 100-400 mg once daily, Day 1 and Day 8, read-out: Median time to reach maximum observed plasma concentration (tmax)): 1 to 2 h
- Best overall response: Non-complete response/non-progressive disease (advanced solid tumors; 100 mg n = 2): 1 (50.0) n (%)
- Best overall response: Not evaluable (advanced solid tumors; 100 mg n = 2): 1 (50.0) n (%)
- Best overall response: Progressive disease (advanced solid tumors; 100 mg n = 2): 0 (0.0) n (%)
- Best overall response: Stable disease (advanced solid tumors; 100 mg n = 2): 0 (0.0) n (%)
- Progressive disease/Deaths (PFS events) (advanced solid tumors; 100 mg n = 2): 0 (0.0) n (%)
- PFS, median (min, max) (advanced solid tumors; 100 mg n = 2, NC, noncalculable): NC (1.2,4.0)
- Best overall response: Non-complete response/non-progressive disease (advanced solid tumors; 200 mg n = 7): 0 (0.0) n (%)
- Best overall response: Not evaluable (advanced solid tumors; 200 mg n = 7): 2 (28.6) n (%)
- Best overall response: Progressive disease (advanced solid tumors; 200 mg n = 7): 5 (71.4) n (%)
- Best overall response: Stable disease (advanced solid tumors; 200 mg n = 7): 0 (0.0) n (%)
- PFS, median (min, max) (advanced solid tumors; 200 mg n = 7): 1.1 (0.0, 1.6) months
- Progressive disease/Deaths (PFS events) (advanced solid tumors; 200 mg n = 7): 6 (85.7) n (%)
- Best overall response: Non-complete response/non-progressive disease (advanced solid tumors; 300 mg n = 9): 0 (0.0) n (%)
- Best overall response: Not evaluable (advanced solid tumors; 300 mg n = 9): 2 (22.2) n (%)
- Best overall response: Progressive disease (advanced solid tumors; 300 mg n = 9): 6 (66.7) n (%)
- Best overall response: Stable disease (advanced solid tumors; 300 mg n = 9): 1 (11.1) n (%)
- PFS, median (min, max) (advanced solid tumors; 300 mg n = 9): 1.3 (0.0, 4.1) months
- Progressive disease/Deaths (PFS events) (advanced solid tumors; 300 mg n = 9): 7 (77.8) n (%)
- Best overall response: Non-complete response/non-progressive disease (advanced solid tumors; 400 mg n = 4): 0 (0.0) n (%)
- Best overall response: Not evaluable (advanced solid tumors; 400 mg n = 4): 2 (50.0) n (%)
- Best overall response: Progressive disease (advanced solid tumors; 400 mg n = 4): 1 (25.0) n (%)
- Progressive disease/Deaths (PFS events) (advanced solid tumors; 400 mg n = 4): 1 (25.0) n (%)
- PFS, median (min, max) (advanced solid tumors; 400 mg n = 4, NC, noncalculable): NC (0.0, 2.8)
- Best overall response: Non-complete response/non-progressive disease (advanced solid tumors; Total N = 22): 1 (4.5) n (%)
- Best overall response: Not evaluable (advanced solid tumors; Total N = 22): 7 (31.8) n (%)
- Best overall response: Progressive disease (advanced solid tumors; Total N = 22): 12 (54.5) n (%)
- Best overall response: Stable disease (advanced solid tumors; Total N = 22): 2 (9.1) n (%)
- PFS, median (min, max) (advanced solid tumors; Total N = 22): 1.3 (0.0, 4.1) months
- Progressive disease/Deaths (PFS events) (advanced solid tumors; Total N = 22): 14 (63.6) n (%)
- Median PFS (advanced solid tumors; all patients, Kaplan–Meier): 1.3 (95% CI, 0.99–1.58) months
- Best overall response stable disease (advanced solid tumors; of 22 patients): 9.1%
- Progressive disease (advanced solid tumors; of 22 patients): 54.5%
- Non-CR/non–progressive disease (advanced solid tumors; of 22 patients, prostate gland cancer): 4.5%
- Duration of stable disease (advanced solid tumors; patient with nasopharyngeal cancer): 120 days
- Patients with molecular response (ctDNA VAF decrease of ≥50% from baseline) [2]: four patients of 21 evaluable patients
- NK cell subsets ([3]; across all DLs): negative trend
- Cytokine modulation (IFN-γ, IL-10, IL-6, IL-8, and TNF-α) ([3]; among different DLs): No relevant trends
- Levels of most explored immune cell subsets ([3]; tested DLs, incl. myeloid-derived suppressor cells, T and B lymphocytes): did not cause any significant change
- Radiotherapy sensitivity of cancer cell lines [4]: enhances the radiotherapy sensitivity
- Tumor growth [5]: complete tumor growth inhibition
- Tumor growth [6]: almost complete tumor regression
- Tumor control rate [7]: 42%
- Patients experiencing SD for >16 weeks [8]: six of 42
